Experimental data from patent US10597388B2, “Pyridazinone herbicides” (FMC CORPORATION, priority 2014, dated 2020).

Key:
Assay in all cases: Test D controlled growth environment herbicide test, pre- and postemergence
Type in all cases: in vivo
[1] = tested on: mustard, wild (wild mustard, Sinapis arvensis)
Text: (§1) Seeds of plant species selected from bluegrass (annual bluegrass, Poa annua), blackgrass (Alopecurus myosuroides), Canada thistle (Cirsium arvense), canarygrass (Phalaris minor), chickweed (common chickweed, Stellaria media), geranium, cutleaf (cutleaf geranium, Geranium dissectum), galium (catchweed bedstraw, Galium aparine), bromegrass, downy (downy bromegrass, Bromus tectorum), field poppy (Papaver rhoeas), field violet (Viola arvensis), foxtail, green (green foxtail, Setaria viridis), deadnettle (henbit deadnettle, Lamium amplexicaule), ryegrass, Italian (Italian ryegrass, Lolium multiflorum), kochia (Kochia scoparia), lambsquarters (Chenopodium album), oilseed rape (Brassica napus), pigweed (Amaranthus retroflexus), chamomile (scentless chamomile, Matricaria inodora), Russian thistle (Salsola kali), speedwell (bird's-eye speedwell, Veronica persica), barley, spring (spring barley, Hordeum vulgare), wheat, spring (spring wheat, Triticum aestivum), buckwheat, wild (wild buckwheat, Polygonum convolvulus), mustard, wild (wild mustard, Sinapis arvensis), oat, wild (wild oat, Avena fatua), radish, wild (wild radish, Raphanus raphanistrum), windgrass (Apera spica-venti), barley, winter (winter barley, Hordeum vulgare), and wheat, winter (winter wheat, Triticum aestivum) were planted into a silt loam soil and treated preemergence with test chemicals formulated in a non-phytotoxic solvent mixture which included a surfactant.
(§2) At the same time, these species were planted in pots containing Redi-Earth® planting medium (Scotts Company, 14111 Scottslawn Road, Marysville, Ohio 43041) comprising spaghnum peat moss, vermiculite, wetting agent and starter nutrients and treated with postemergence applications of the test chemicals formulated in the same manner. Plants ranged in height from 2 to 18 cm (1- to 4-leaf stage). Treated plants and controls were maintained in a controlled growth environment for 14 to 21 d after which time all species were compared to controls and visually evaluated. Plant response ratings, summarized in Table D, are based on a scale of 0 to 100 where 0 is no effect and 100 is complete control. A dash (-) response means no test result.

[2] = tested on: field poppy (Papaver rhoeas)
Text: as §1, §2

[3] = tested on: chamomile (scentless chamomile, Matricaria inodora)
Text: as §1, §2

[4] = tested on: speedwell (bird's-eye speedwell, Veronica persica)
Text: as §1, §2

[5] = tested on: deadnettle (henbit deadnettle, Lamium amplexicaule)
Text: as §1, §2

[6] = tested on: chickweed (common chickweed, Stellaria media)
Text: as §1, §2

[7] = tested on: barley, spring (spring barley, Hordeum vulgare)
Text: as §1, §2

kochia (Kochia scoparia) = tested on: kochia (Kochia scoparia)
Text: as §1, §2

[8] = tested on: oilseed rape (Brassica napus)
Text: as §1, §2

[9] = tested on: radish, wild (wild radish, Raphanus raphanistrum)
Text: as §1, §2

[10] = tested on: wheat, winter (winter wheat, Triticum aestivum)
Text: as §1, §2

[11] = tested on: field violet (Viola arvensis)
Text: as §1, §2

[12] = tested on: oat, wild (wild oat, Avena fatua)
Text: as §1, §2

[13] = Postemergence, 31 g ai/ha, scale 0 to 100 (0 no effect, 100 complete control)
[14] = Postemergence, 125 g ai/ha, visual rating on scale 0 (no effect) to 100 (complete control), 14 to 21 d
[15] = Postemergence, 250 g ai/ha, scale 0 to 100 (0 no effect, 100 complete control)
[16] = Preemergence, 62 g ai/ha, scale 0 to 100 (0 no effect, 100 complete control)
[17] = Preemergence, 125 g ai/ha, scale 0 to 100 (0 no effect, 100 complete control)
[18] = Preemergence, 250 g ai/ha, scale 0 to 100, 0 no effect, 100 complete control
[19] = postemergence, 62 g ai/ha, scale 0 to 100, 0 no effect, 100 complete control

SMILES: Cc1cc(C)c2sc(C)c(-c3c(O)c(C)nn(C)c3=O)c2c1 [Compound 2, 5-hydroxy-2,6-dimethyl-4-(2,5,7-trimethylbenzo[b]thien-3-yl)-3(2H)-pyridazinone]
- Mustard, Wild plant response rating [1, 13]: 25
- Plant response rating, Mustard, Wild [1, 14]: 40
- Plant response rating, Mustard, Wild [1, 15]: 55
- Plant response rating (scale of 0 to 100), Mustard, Wild ([1]; Preemergence, 31 g ai/ha): 0
- Plant response rating, Mustard, Wild [1, 16]: 0
- Plant response rating, Mustard, Wild [1, 17]: 5
- Plant response rating, Mustard, Wild [1, 18]: 40
- Plant response rating, Mustard, Wild [1, 19]: 35
- Field Poppy plant response rating [2, 13]: 75
- Plant response rating, Field Poppy [2, 14]: 100
- Plant response rating, Field Poppy [2, 15]: 100
- Plant response rating (scale of 0 to 100), Field Poppy ([2]; Preemergence, 31 g ai/ha): 95
- Plant response rating, Field Poppy [2, 16]: 95
- Plant response rating, Field Poppy [2, 17]: 95
- Plant response rating, Field Poppy [2, 18]: 100
- Plant response rating, Field Poppy [2, 19]: 95
- Chamomile plant response rating [3, 13]: 70
- Plant response rating, Chamomile [3, 14]: 90
- Plant response rating, Chamomile [3, 15]: 100
- Plant response rating (scale of 0 to 100), Chamomile ([3]; Preemergence, 31 g ai/ha): 80
- Plant response rating, Chamomile [3, 16]: 100
- Plant response rating, Chamomile [3, 17]: 95
- Plant response rating, Chamomile [3, 18]: 100
- Plant response rating, Chamomile [3, 19]: 80
- Speedwell plant response rating [4, 13]: 50
- Plant response rating, Speedwell [4, 14]: 80
- Plant response rating, Speedwell [4, 15]: 90
- Plant response rating (scale of 0 to 100), Speedwell ([4]; Preemergence, 31 g ai/ha): 55
- Plant response rating, Speedwell [4, 17]: 90
- Plant response rating, Speedwell [4, 18]: 100
- Plant response rating, Speedwell [4, 19]: 65
- Deadnettle plant response rating [5, 13]: 60
- Plant response rating, Deadnettle [5, 14]: 60
- Plant response rating, Deadnettle [5, 15]: 60
- Plant response rating (scale of 0 to 100), Deadnettle ([5]; Preemergence, 31 g ai/ha): 0
- Plant response rating, Deadnettle [5, 16]: 0
- Plant response rating, Deadnettle [5, 17]: 0
- Plant response rating, Deadnettle [5, 18]: 55
- Plant response rating, Deadnettle [5, 19]: 60
- Chickweed plant response rating [6, 13]: 85
- Plant response rating, Chickweed [6, 14]: 100
- Plant response rating, Chickweed [6, 15]: 100
- Plant response rating (scale of 0 to 100), Chickweed ([6]; Preemergence, 31 g ai/ha): 90
- Plant response rating, Chickweed [6, 16]: 100
- Plant response rating, Chickweed [6, 17]: 100
- Plant response rating, Chickweed [6, 18]: 100
- Plant response rating, Chickweed [6, 19]: 95
- Plant response rating, Barley, Spring [7, 13]: 0
- Plant response rating, Barley, Spring [7, 14]: 5
- Plant response rating, Barley, Spring [7, 15]: 5
- Plant response rating (scale of 0 to 100), Barley, Spring ([7]; Preemergence, 31 g ai/ha): 0
- Plant response rating, Barley, Spring [7, 16]: 0
- Plant response rating, Barley, Spring [7, 17]: 0
- Barley, Spring plant response rating [7, 18]: 0
- Plant response rating, Barley, Spring [7, 19]: 0
- Kochia plant response rating (kochia (Kochia scoparia); [13]): 50
- Plant response rating, Kochia (kochia (Kochia scoparia); [14]): 65
- Plant response rating, Kochia (kochia (Kochia scoparia); [15]): 70
- Plant response rating (scale of 0 to 100), Kochia (kochia (Kochia scoparia); Preemergence, 31 g ai/ha): 0
- Plant response rating, Kochia (kochia (Kochia scoparia); [16]): 0
- Plant response rating, Kochia (kochia (Kochia scoparia); [17]): 0
- Plant response rating, Kochia (kochia (Kochia scoparia); [18]): 20
- Plant response rating, Kochia (kochia (Kochia scoparia); [19]): 60
- Oilseed Rape plant response rating [8, 13]: 20
- Plant response rating, Oilseed Rape [8, 14]: 55
- Plant response rating, Oilseed Rape [8, 15]: 70
- Plant response rating (scale of 0 to 100), Oilseed Rape ([8]; Preemergence, 31 g ai/ha): 0
- Plant response rating, Oilseed Rape [8, 16]: 0
- Plant response rating, Oilseed Rape [8, 17]: 20
- Plant response rating, Oilseed Rape [8, 18]: 40
- Plant response rating, Oilseed Rape [8, 19]: 45
- Radish, Wild plant response rating [9, 13]: 25
- Plant response rating, Radish, Wild [9, 14]: 65
- Plant response rating, Radish, Wild [9, 15]: 60
- Plant response rating (scale of 0 to 100), Radish, Wild ([9]; Preemergence, 31 g ai/ha): 0
- Plant response rating, Radish, Wild [9, 16]: 5
- Plant response rating, Radish, Wild [9, 17]: 15
- Plant response rating, Radish, Wild [9, 18]: 100
- Plant response rating, Radish, Wild [9, 19]: 55
- Wheat, Winter plant response rating [10, 13]: 0
- Plant response rating, Wheat, Winter [10, 14]: 5
- Plant response rating, Wheat, Winter [10, 15]: 10
- Plant response rating (scale of 0 to 100), Wheat, Winter ([10]; Preemergence, 31 g ai/ha): 0
- Plant response rating, Wheat, Winter [10, 16]: 0
- Plant response rating, Wheat, Winter [10, 17]: 0
- Plant response rating, Wheat, Winter [10, 18]: 5
- Plant response rating, Wheat, Winter [10, 19]: 0
- Field Violet plant response rating [11, 13]: 60
- Plant response rating, Field Violet [11, 14]: 75
- Plant response rating, Field Violet [11, 15]: 80
- Plant response rating (scale of 0 to 100), Field Violet ([11]; Preemergence, 31 g ai/ha): 95
- Plant response rating, Field Violet [11, 16]: 100
- Plant response rating, Field Violet [11, 17]: 100
- Plant response rating, Field Violet [11, 18]: 100
- Plant response rating, Field Violet [11, 19]: 85
- Oat, Wild plant response rating [12, 13]: 55
- Plant response rating, Oat, Wild [12, 14]: 90
- Plant response rating, Oat, Wild [12, 15]: 100
- Plant response rating (scale of 0 to 100), Oat, Wild ([12]; Preemergence, 31 g ai/ha): 80
- Plant response rating, Oat, Wild [12, 16]: 90
- Plant response rating, Oat, Wild [12, 17]: 95
- Plant response rating, Oat, Wild [12, 18]: 100
- Plant response rating, Oat, Wild [12, 19]: 80
